Laboratory results as given in US20040062842A1, “Green soybeans whose color is prevented from discoloring” (priority 2002, published 2004).

Legend:
[1] = Suppression of discoloration of a chlorophyll/ethanol solution preserved under illumination of light; settings: 10° C., 17 hours, 1600 Lux; for Suppression Effect (%): 0.01 M anti-oxidation material in chlorophyll/ethanol solution (25 μg/ml), absorbance at 640 nm, relative to control sample; for effect of retaining a green color against light: addition to chlorophyll/ethanol solution
Experimental: Next, to check the effect resulting when anti-oxidation materials permeated into tissues, particularly chloroplasts, of a living body, a test for suppressing discoloration of a green color was made by preparing a chlorophyll/ethanol solution including chlorophyll, dissolving each of various anti-oxidation materials in the solution, and preserving it under illumination of light. More specifically, 4 ml of the chlorophyll/ethanol solution was prepared by adding 25 μg of chlorophyll in 1 ml of ethanol, and each anti-oxidation material, i.e., 0.01 M of ascorbic acid (aqueous solution), 0.01 M of α-tochopherol (ethanol solution), and 0.01 M of β-carotene (ethanol solution), was dissolved in the chlorophyll/ethanol solution. After enclosing each test sample, the test sample was preserved at 10° C. for 17 hours under 1600 Lux. Then, a change in absorbance of the test sample at 640 nm between before and after the preservation was measured. A higher value of the absorbance at 640 nm means a larger amount of chlorophyll. In Table 1, “control sample” represents a sample in which water was added, and “suppression effect” represents a chlorophyll reduction rate of each test sample calculated on condition that a chlorophyll reduction rate of the control sample after the preservation under illumination of light was assumed to be 100.

[2] = Suppression of discoloration by immersing green soybeans in aqueous solutions of anti-oxidation materials; parameters: species or system green soybean; settings: green soybeans immersed in aqueous solutions, permeation into tissues under depressurization
Text: A test for suppressing discoloration of a green color was made by immersing green soybeans in aqueous solutions of various anti-oxidation materials, such as ascorbic acid, tocopherol and carotenoids, thus causing the anti-oxidation materials to permeate into tissues under depressurization and to capture radicals inducing decomposition of chlorophyll.

| Molecule | Suppression Effect (%) [1] [%] | effect of suppressing discoloration of a green color [2] | effect of retaining a green color against light [1] |
| --- | --- | --- | --- |
| O=C1O[C@H]([C@@H](O)CO)C(O)=C1O [Ascorbic acid aqueous solution, ascorbic acid] | 0 | hardly confirmed | – |
| Cc1c(C)c2c(c(C)c1O)CCC(C)(CCCC(C)CCCC(C)CCCC(C)C)O2 (stereo not drawn) [α-Tochopherol/ethanol solution, α-tochopherol] | 52.4 | – | apparent effect of retaining a green color against light was confirmed |
| CC1=C(/C=C/C(C)=C/C=C/C(C)=C/C=C/C=C(C)/C=C/C=C(C)/C=C/C2=C(C)CCCC2(C)C)C(C)(C)CCC1 [β-Carotene/ethanol solution, β-carotene] | 56.1 | – | apparent effect of retaining a green color against light was confirmed |
| tocopherol | – | hardly confirmed | – |
